Assay results from Sander's compilation of Henry's law constants (doi:10.1515/zpch-1906-5519).

test: Henry solubility constant Hcp at 298.15 K (mol/(m3 Pa)); conditions: reference: Rex (1906)

Compared with `CI` [iodomethane], `CCI` [iodoethane] is lower in “Henry solubility constant Hcp” value: 0.0019 for the first, 0.0015 for the second.

Going from `CCCBr` [1-bromopropane] to `CCBr` [bromoethane], the “Henry solubility constant Hcp” value rises from 0.0011 to 0.0013.

First: BrCBr [dibromomethane]
Second: ClCCl [dichloromethane]
The “Henry solubility constant Hcp” value of the first is higher: 0.011 for the first, 0.0041 for the second.

First: CC(C)I [2-iodopropane]
Second: CC(C)Br [2-bromopropane]
The “Henry solubility constant Hcp” value of the first is lower: 0.00085 for the first, 0.0009 for the second.

Going from `CCCI` [1-iodopropane] to `CC(C)Cl` [2-chloropropane], the “Henry solubility constant Hcp” value falls from 0.001 to 0.00056.

Going from `S=C=S` [carbon disulfide] to `ClC(Cl)(Cl)Cl` [tetrachloromethane], the “Henry solubility constant Hcp” value falls from 0.00054 to 0.00035.
